Measured values from patent US4175081A, “5-Substituted thiadiazole ureas” (priority 1977, dated 1979).

Assays:
[1] = system: Cotton (CT); experiment: Post-emergence herbicide test; assay type: in vivo, Gossypium hirsutum var. DPL smooth leaf; settings: Gossypium hirsutum, post-emergence, 336 h, two weeks after treatment
How it was run: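 This greenhouse post-emergence test measured how well spray treatments controlled cotton. Seedlings of Gossypium hirsutum var. DPL smooth leaf, with expanded cotyledons and a first true leaf 1' in length, were sprayed with 50 ml formulations in a belt-fed spray hood. They were then returned to the greenhouse and watered only by sub-irrigation. Injury was scored visually as % control after two weeks.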

[2] = system: variety of crops and weed species; experiment: Pre- and post-emergence herbicide tests, overall assessment of Tables III-VI; assay type: in vivo; settings: data of Tables III-VI
How it was run: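 Crops and weeds grown in potting soil were sprayed at 8 lbs. compound per acre in 38 gallons per acre, pre-emergence pots seeded one day before treatment. Injury or control was visually rated two weeks after treatment.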

[3] = system: Johnson grass (JG); experiment: Pre-emergence herbicide test; assay type: in vivo, Sorgum helepense; settings: Sorghum halepense, 336 h, two weeks after treatment
How it was run: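 Visual injury or control rating two weeks post-treatment, after pre-emergence spray of 8 or 4 lbs active per acre (38 gal/acre) onto pots sown the previous day. Greenhouse watering by sub-irrigation only.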

[4] = system: Crabgrass (CG); experiment: Post-emergence herbicide test; assay type: in vivo, Digitaria sanquinalis; settings: Digitaria sanguinalis, post-emergence, 336 h, two weeks after treatment
How it was run: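 Crabgrass (Digitaria sanquinalis) was surface seeded individually in 3' plastic pots of potting soil, covered with screened soil, and watered by sub-irrigation in greenhouse trays. Planting was staggered so seedlings reached the target stage together. Post-emergence sprays were applied in a hood with a removable belt and fixed nozzle, and control was visually rated two weeks after treatment.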

[5] = system: Cotton (CT); experiment: Pre-emergence herbicide test; assay type: in vivo, Gossypium hirsutum var. DPL smooth leaf; settings: Gossypium hirsutum, 336 h, two weeks after treatment
How it was run: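 Visual injury/control ratings were taken at two weeks post-spray. Pots seeded a day earlier received compound pre-emergence at 8 lbs/acre, or 4 lbs/acre, in a 38 gallon/acre spray volume, and were then held in the greenhouse, watered only from below.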

[6] = system: Crabgrass (CG); experiment: Pre-emergence herbicide test; assay type: in vivo, Digitaria sanquinalis; settings: Digitaria sanguinalis, pre-emergence, 336 h, two weeks after treatment
How it was run: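 Crabgrass (Digitaria sanquinalis) was surface seeded in 3' plastic pots of potting soil, covered with screened soil, and watered by sub-irrigation in greenhouse trays. Pots were seeded one day before spraying in a hood with a moving belt and fixed nozzle. Plants stayed in the greenhouse on sub-irrigation, and pre-emergence control was rated visually two weeks after treatment.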

[7] = system: Amaranth pigweed (PW); experiment: Post-emergence herbicide test; assay type: in vivo, Amaranthus retroflexus; settings: 336 h, two weeks after treatment
How it was run: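 Visual injury or control ratings were made two weeks after spraying, with greenhouse watering by sub-irrigation only. Treatment was post-emergence, when pigweed seedlings had 1 or 2 true leaves, at 8 lbs active compound per acre (4 lbs/acre formulations also made) in a 38 gallons-per-acre spray volume.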

[8] = system: Turnip (TP); experiment: Post-emergence herbicide test; assay type: in vivo, Brassica sp.; settings: Brassica rapa, post-emergence, 336 h, two weeks after treatment
How it was run: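 A greenhouse post-emergence herbicide test on turnip. Seeds were sown on the surface of potting soil in 3' plastic pots, lightly covered with screened soil and watered from below. Planting was timed so seedlings had 1 or 2 true leaves above the cotyledons at spraying, done in a hood with a fixed nozzle. Control or injury was scored by eye after two weeks.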

[9] = system: Barnyard grass (BG); experiment: Post-emergence herbicide test; assay type: in vivo; settings: Echinochloa crus-galli, 336 h, two weeks after treatment
How it was run: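 Greenhouse pot-grown barnyard grass seedlings sprayed post-emergence at 8 lbs active compound per acre (some at 4 lbs/acre) in 38 gallons per acre, then sub-irrigated. Injury or control rated visually two weeks after treatment.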

[10] = system: Corn (CN); experiment: Post-emergence herbicide test; assay type: in vivo; settings: Zea mays, 336 h, two weeks after treatment
How it was run: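 Greenhouse seedlings grown in potting soil and sprayed post-emergence at 8 lbs compound/acre (formulations also made for 4 lbs/acre) in 38 gallons/acre spray volume. Watering by sub-irrigation only. Injury or control rated visually two weeks after treatment.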

[11] = system: Yellow foxtail grass (YF); experiment: Pre-emergence herbicide test; assay type: in vivo, Setaria glauca; settings: Setaria, 336 h, two weeks after treatment
How it was run: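 Visual rating of injury/control made two weeks after a pre-emergence spray of 8 or 4 lbs active per acre (38 gal/acre) onto pots seeded the previous day. Greenhouse watering by sub-irrigation only.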

[12] = system: Turnip (TP); experiment: Pre-emergence herbicide test; assay type: in vivo, Brassica sp.; settings: Brassica rapa, pre-emergence, 336 h, two weeks after treatment
How it was run: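 In this pre-emergence greenhouse test, turnip was seeded on the surface of potting soil in 3' plastic pots, lightly covered with screened soil, and watered from below. One day later the pots were sprayed in a belt-fed spray hood. Watering continued only by sub-irrigation, and percent control was visually scored two weeks after treatment.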

[13] = system: Amaranth pigweed (PW); experiment: Pre-emergence herbicide test; assay type: in vivo, Amaranthus retroflexus; settings: 336 h, two weeks after treatment
How it was run: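 Visual injury or control ratings were made at two weeks on pre-emergence pots, sub-irrigated in the greenhouse. Seeds were sown a day before a hood spray delivering 8 lbs/acre (or 4 lbs/acre) of compound in 38 gallons per acre.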

[14] = system: Yellow foxtail grass (YF); experiment: Post-emergence herbicide test; assay type: in vivo, Setaria glauca; settings: Setaria, 336 h, two weeks after treatment
How it was run: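 Visual rating of injury/control made 2 weeks post-spray. Seedlings at a uniform growth stage in soil-filled pots received a hood spray of 8 lbs/acre active compound, 38 gallons/acre volume, with a 4 lbs/acre rate also formulated. Watering was by sub-irrigation only.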

[15] = system: Corn (CN); experiment: Pre-emergence herbicide test; assay type: in vivo; settings: Zea mays, 336 h, two weeks after treatment
How it was run: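 Visual injury/control ratings were made 2 weeks post-spray on corn pots seeded (4 seeds, seed-diameter depth) the day before treatment. Application was a belt-hood spray of 38 gal/acre delivering 8 lbs active per acre, with a 4 lbs/acre rate also formulated. Watering was by sub-irrigation throughout.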

[16] = system: Bean (BN); experiment: Pre-emergence herbicide test; assay type: in vivo, Phaseolus vulgaris var. Black Valentine; settings: Phaseolus vulgaris, 336 h, two weeks after treatment
How it was run: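 Visual injury/control ratings were taken two weeks post-spray on sub-irrigated Phaseolus vulgaris var. Black Valentine. Pots were sown a day before treatment. Pre-emergence spray delivered 8 lbs actual compound per acre (or 4 lbs/acre) at 38 gallons per acre.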

[17] = system: Johnson grass (JG); experiment: Post-emergence herbicide test; assay type: in vivo, Sorgum helepense; settings: Sorghum halepense, 336 h, two weeks after treatment
How it was run: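 Visual injury or control scores taken 2 weeks after a post-emergence spray of pot-grown plants. Application was 8 lbs/acre (or 4 lbs/acre) in 38 gal/acre. Plants were held in the greenhouse with sub-irrigation only.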

[18] = system: Bean (BN); experiment: Post-emergence herbicide test; assay type: in vivo, Phaseolus vulgaris var. Black Valentine; settings: Phaseolus vulgaris, post-emergence, 336 h, two weeks after treatment
How it was run: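 Bean seedlings (Phaseolus vulgaris var. Black Valentine) were grown in potting soil in 3' pots until the primary leaves expanded. They were then sprayed under a hood with a removable belt and fixed nozzle, using 50 ml formulations. Afterward they were returned to the greenhouse and watered only by sub-irrigation. Percent control was judged visually two weeks after treatment.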

[19] = system: Barnyard grass (BG); experiment: Pre-emergence herbicide test; assay type: in vivo; settings: Echinochloa crus-galli, 336 h, two weeks after treatment
How it was run: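 Greenhouse pre-emergence spray test: pots seeded one day before treatment received compound at rates of 8 or 4 lb/acre (38 gal/acre). Visual injury/control scores for Echinochloa crus-galli taken at two weeks, with watering by sub-irrigation only.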

SMILES: CCN(C(=O)NC)c1nnc(C(F)(F)F)s1 [Example 37]
- pest or weed control at 2241.7 g/ha ([1]; 2 lb/acre): 100%
- pest or weed control at 4483.4 g/ha ([1]; 4 lb/acre): 100%
- pest or weed control at 8966.8 g/ha ([1]; 8 lb/acre): 100%
- herbicidal effectiveness / selectivity, in words [2]: extremely effective when applied to a variety of crops and weed species
- pest or weed control at 2241.7 g/ha ([3]; 2 lb/acre): 60%
- pest or weed control at 4483.4 g/ha ([3]; 4 lb/acre): 70%
- pest or weed control at 8966.8 g/ha ([3]; 8 lb/acre): 60%
- pest or weed control ([4]; 2 lb/acre): 30%
- pest or weed control at 4483.4 g/ha ([4]; 4 lb/acre): 40%
- pest or weed control at 8966.8 g/ha ([4]; 8 lb/acre): 90%
- pest or weed control at 2241.7 g/ha ([5]; 2 lb/acre): 40%
- pest or weed control at 4483.4 g/ha ([5]; 4 lb/acre): 40%
- pest or weed control at 8966.8 g/ha ([5]; 8 lb/acre): 60%
- pest or weed control ([6]; 2 lb/acre): 90%
- pest or weed control at 4483.4 g/ha ([6]; 4 lb/acre): 90%
- pest or weed control at 8966.8 g/ha ([6]; 8 lb/acre): 90%
- pest or weed control at 2241.7 g/ha ([7]; 2 lb/acre): 90%
- pest or weed control at 4483.4 g/ha ([7]; 4 lb/acre): 100%
- pest or weed control at 8966.8 g/ha ([7]; 8 lb/acre): 100%
- pest or weed control at 2241.7 g/ha ([8]; 2 lb/acre): 90%
- pest or weed control at 4483.4 g/ha ([8]; 4 lb/acre): 90%
- pest or weed control at 8966.8 g/ha ([8]; 8 lb/acre): 100%
- pest or weed control at 2241.7 g/ha ([9]; 2 lb/acre): 20%
- pest or weed control at 4483.4 g/ha ([9]; 4 lb/acre): 30%
- pest or weed control at 8966.8 g/ha ([9]; 8 lb/acre): 90%
- pest or weed control ([10]; 2 lb/acre): 20%
- pest or weed control at 4483.4 g/ha ([10]; 4 lb/acre): 80%
- pest or weed control at 8966.8 g/ha ([10]; 8 lb/acre): 80%
- pest or weed control at 2241.7 g/ha ([11]; 2 lb/acre): 70%
- pest or weed control at 4483.4 g/ha ([11]; 4 lb/acre): 80%
- pest or weed control at 8966.8 g/ha ([11]; 8 lb/acre): 90%
- pest or weed control at 2241.7 g/ha ([12]; 2 lb/acre): 100%
- pest or weed control at 4483.4 g/ha ([12]; 4 lb/acre): 100%
- pest or weed control at 8966.8 g/ha ([12]; 8 lb/acre): 100%
- pest or weed control at 2241.7 g/ha ([13]; 2 lb/acre): 90%
- pest or weed control at 4483.4 g/ha ([13]; 4 lb/acre): 100%
- pest or weed control at 8966.8 g/ha ([13]; 8 lb/acre): 100%
- pest or weed control ([14]; 2 lb/acre): 30%
- pest or weed control at 4483.4 g/ha ([14]; 4 lb/acre): 50%
- pest or weed control at 8966.8 g/ha ([14]; 8 lb/acre): 90%
- pest or weed control at 2241.7 g/ha ([15]; 2 lb/acre): 30%
- pest or weed control at 4483.4 g/ha ([15]; 4 lb/acre): 40%
- pest or weed control at 8966.8 g/ha ([15]; 8 lb/acre): 50%
- pest or weed control at 2241.7 g/ha ([16]; 2 lb/acre): 80%
- pest or weed control at 4483.4 g/ha ([16]; 4 lb/acre): 70%
- pest or weed control at 8966.8 g/ha ([16]; 8 lb/acre): 90%
- pest or weed control ([17]; 2 lb/acre): 20%
- pest or weed control at 4483.4 g/ha ([17]; 4 lb/acre): 30%
- pest or weed control at 8966.8 g/ha ([17]; 8 lb/acre): 70%
- pest or weed control at 2241.7 g/ha ([18]; 2 lb/acre): 90%
- pest or weed control at 4483.4 g/ha ([18]; 4 lb/acre): 100%
- pest or weed control at 8966.8 g/ha ([18]; 8 lb/acre): 100%
- pest or weed control at 2241.7 g/ha ([19]; 2 lb/acre): 50%
- pest or weed control at 4483.4 g/ha ([19]; 4 lb/acre): 60%
- pest or weed control at 8966.8 g/ha ([19]; 8 lb/acre): 90%
